{"source": "patent US8071548B2", "about": "“Method of reducing injury to mammalian cells” (Nono, Inc., priority 2002, dated 2011)", "key": {"[1]": {"system": "cortical neuronal cultures", "assay": "Sublethal stretch injury with or without NMDA, cell death in cortical cultures", "type": "cell-based", "details": "200 μM", "protocol": "[…]. In brief, cerebral cortices from 10 to 12 embryos were incubated for 10 min in 0.05% trypsin-EDTA, dissociated by trituration, and plated on flexible membranes coated with poly-L-ornithine in 6 well plates (Flexcell International Corporation, Hillsborough, N.C.) at a density of 3.25×10^6 cells per well. Plating medium consisted of DMEM supplemented with 10% heat-inactivated horse serum (Gibco) and (in mM) 2 glutamine, 25 glucose, and 26 bicarbonate. The cultures were maintained at 37° C. in a humidified 5% CO2 atmosphere. After 3 days in vitro, growth of non-neuronal cells was halted by a 48 h exposure to 10 μM FDU-solution (5 μM uridine, 5 μM (+)-5-fluor-2′-deoxyuridine). This produces cultures in which >85% of the cells are neurons, based on immunohistochemical staining for glial fibrillary associated protein (exclusive to astrocytes), and for the NMDAR1 subunit (not shown). The cultures were used for experiments after 12-14 days in vitro.\nThe cultures, grown on silastic membranes as above, were placed in the Flexercell® FX-3000™ Strain Unit (Flexcell Int., Inc.), a computer-driven instrument that uses a vacuum pulse to deform the culture substrate. In all experiments, the cortical cultures were stretched to 130% of their original length for 1 s, inducing a sublethal injury as recently characterized by us (Arundine et al., 2003). The stretched neurons maintained cell membrane integrity, viability, and electrophysiological function.\nCell death was determined by serial quantitative measurements of propidium iodide (PI) fluorescence using a multiwell plate fluorescence scanner (Cytofluor II, PerSeptive Biosytems, Framingham, Mass., USA) as described previously (Sattler et al., 1997; Sattler et al., 1998). In brief, the culture medium in each tissue culture well was replaced with control solution containing 50 μg/ml PI, and a baseline fluorescence reading was taken. Sequential readings were then taken at appropriate intervals over the 20 h observation period. The fraction of dead cells in each culture at a given time was calculated as: Fraction dead=(Ft−Fo)/FNMDA Where Ft=PI fluorescence at time t, F0=initial PI fluorescence at time zero and FNMDA=background subtracted PI fluorescence of identical cultures from the same dissection and plating, 20-24 h after a 60 min exposure to 1 mM NMDA at 37° C. Based on manual observations at the time of validation of this technique, this NMDA exposure routinely produced near complete neuronal death in each culture but had no effect on surrounding glia (also see (Bruno et al., 1994; David et al., 1996; Sattler et al., 1997)). Adding Triton X-100 (0.1%) to cultures treated in this manner produced an additional 10-15% increase in PI fluorescence due to permeabilization of non-neuronal cell membranes, consistent with a 10-15% glial component in the cultures.\nAll experiments were performed at 37° C. Unless otherwise indicated, all solutions contained nimodipine (2 μM) and CNQX (10 μM) to restrict the actions of applied NMDA to NMDARs by preventing the secondary activation of other pathways (Sattler et al., 1998). In general, the cultures were washed ×2 with control solution and immediately stretched to 130% of their original length for 1 s. After the stretch, they were washed ×1 with control solution alone or challenged with an additional treatment (e.g., NMDA) and placed at 37° C. for 1 h. They were then washed ×1 with control solution and then with control solution containing 50 μg/ml PI to obtain a baseline reading. In pilot studies, baseline readings obtained at this stage were similar to those obtained by staining the cells with PI prior to stretch. As the stretch causes splashing of the bath solution, staining with PI after stretch reduced biohazard potential and artifacts associated with PI outside the culture well. Unstretched controls were manipulated identically to stretched cultures."}, "[2]": {"system": "cortical neuronal cultures", "assay": "Staurosporine-induced cell death in cortical cultures", "type": "cell-based, mouse", "details": "200 μM for 48 h, staurosporine 1 μM"}, "[3]": {"system": "cortical neuronal cultures", "assay": "DNA fragmentation assays (TUNEL, DNA gel electrophoresis)", "type": "cell-based, mouse", "text": "DNA fragmentation was examined using the terminal deoxynucleotidyl transferase-mediated end nick labeling (TUNEL) method (Gavrieli et al., 1992; Didenko and Hornsby, 1996; Didenko et al., 1998) and by DNA agarose gel electrophoresis (Hill et al., 2000).\nTUNEL Assay: Nuclear DNA strand breaks were detected by enzymatically labeling free 3′-OH termini with modified nucleotides provided in the Apoptag kit (Intergen) using the manufacturer's instructions. Visualization of TUNEL-stained nuclei was achieved using an anti-digoxigenin antibody conjugated to a fluorescein or peroxidase reporter molecule (ApopTag Peroxidase Kits S7110 and S7100, respectively, Intergen). In fluorescence experiments, nuclei were counterstained using 5 ng/ml Hoechst 33258 (1:5000, Transduction Labs), and visualized using 465-495 nm excitation and 515-555 nm emission for fluorescein and 340 nm excitation and 510-40 nm emission for Hoechst. The number of TUNEL positive cells was expressed as a fraction of the total cell number in the field. In each culture, 4-8 random fields were quantified. Approximately 100-200 cells were counted per culture, and at least 3 experiments were performed for each set of counts.\nDNA Gel Electrophoresis: DNA laddering was evaluated as described elsewhere (Hill et al., 2000). In brief, all tissue was collected from each culture well and pelleted by centrifugation (1000 rpm; 1 min). The cells were digested for 2 h at 56° C. in buffer containing (in mM) 10 Tris pH 8.0, 2 EDTA pH8, 400 NaCl, 0.5% SDS, 1 mg/ml proteinase K. Digest solution was subjected to phenol/chloroform extraction and total DNA was precipitated from the aqueous layer with an equal volume of 100% ethanol. The DNA pellet was dried, dissolved in 50 μl ddH20 and kept overnight at 4° C. 10 μg DNA was prepared on a 2% agarose gel. Gels were stained with ethidium bromide and photographed."}, "caspase 3": {"system": "caspase 3", "assay": "Active caspase 3 immunofluorescence", "type": "cell-based, mouse", "details": "positive control", "protocol": "Cultures were fixed with warm 4% paraformaldehyde and 4% sucrose in PBS for 20 min, permeabilized with 0.1% Triton X-100 for 10 min at 4° C., and blocked with 10% goat serum in PBS for 1 h at RT. Immunofluorescence was visualized with an inverted Nikon microscope using a 40× oil immersion lens. FITC, rhodamine and Hoechst were visualized using 465-495 excitation and 515-555 nm emission, 510-560 nm excitation and 590 nm emission, and 340 nm excitation and 510 nm emission, respectively. Active caspase 3 was labelled by incubating the cultures with a purified rabbit monoclonal anti-active caspase 3 antibody (1:300; BD PharMingen) and a fluorescein-conjugated goat anti-mouse IgG secondary antibody (1:500; Transduction Labs). Nitrotyrosine was labelled by incubating the cultures with a rabbit polyclonal α-nitrotyrosine primary antibody (1:300; Upstate) and a rhodamine-conjugated goat anti-rabbit IgG secondary antibody (1:500; Transduction Labs). AIF was labelled by incubating the cultures with an AIF antibody (1:200; Santa Cruz, (Zhang et al., 2002)) and a rhodamine-conjugated goat anti-mouse IgG secondary antibody (1:500; Transduction Labs). In some experiments, nuclei were counter-stained with Hoechst 33258 (1:5,000, Transduction Labs)."}, "NMDARs": {"system": "NMDARs", "assay": "Whole cell patch-clamp recordings of NMDA currents in cultured neurons", "type": "cell-based, mouse", "details": "intracellular dialysis of 1 mM peptide, 300 μM NMDA"}, "NMDAR/PSD-95 interaction": {"target": "NMDAR/PSD-95 interaction (Rattus norvegicus, UniProt P31016)", "sequence (P31016 whole entry)": "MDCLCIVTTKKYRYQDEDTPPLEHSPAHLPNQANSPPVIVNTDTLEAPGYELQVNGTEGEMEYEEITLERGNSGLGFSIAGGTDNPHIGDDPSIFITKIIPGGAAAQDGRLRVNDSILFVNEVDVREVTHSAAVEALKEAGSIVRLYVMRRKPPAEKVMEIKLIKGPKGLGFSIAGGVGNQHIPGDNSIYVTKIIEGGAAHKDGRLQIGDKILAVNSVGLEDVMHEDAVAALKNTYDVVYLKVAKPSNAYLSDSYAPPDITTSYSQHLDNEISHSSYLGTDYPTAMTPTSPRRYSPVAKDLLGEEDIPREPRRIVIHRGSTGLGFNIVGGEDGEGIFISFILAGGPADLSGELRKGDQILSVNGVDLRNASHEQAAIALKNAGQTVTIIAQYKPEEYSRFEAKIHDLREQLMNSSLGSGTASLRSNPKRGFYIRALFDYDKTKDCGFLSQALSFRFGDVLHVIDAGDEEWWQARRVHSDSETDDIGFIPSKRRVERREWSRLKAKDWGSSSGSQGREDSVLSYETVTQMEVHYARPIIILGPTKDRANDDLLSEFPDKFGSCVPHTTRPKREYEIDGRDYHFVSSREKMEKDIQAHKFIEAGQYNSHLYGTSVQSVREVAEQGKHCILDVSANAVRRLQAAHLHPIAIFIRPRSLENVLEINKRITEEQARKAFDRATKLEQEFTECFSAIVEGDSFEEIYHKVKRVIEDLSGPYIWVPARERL", "type": "binding", "details": "as compared with controls"}, "[4]": {"system": "cultured cortical neurons", "assay": "Intracellular peptide delivery into cortical neuronal cultures (dansyl fluorescence, confocal microscopy)", "type": "cell-based, mouse", "details": "bath applied to cultured cortical neurons; dansyl peptides 10 μM", "protocol": "I bath applied these to cultured cortical neurons and observed their fluorescence by confocal microscopy. […] Tat-NR2B9c-dansyl was detectable in the neurons within 10 min of the start of the application and the peptide accumulated to a maximum level over the next 20 min (FIG. 5C). This level was maintained until the dansyl-Tat-NR2B9c was washed from the bath and the peptide remained detectable within the neurons for more than 5 hours thereafter."}, "[5]": {"system": "cultured cortical neurons"}, "reactive oxygen species": {"system": "reactive oxygen species", "assay": "ROS production (DHR fluorescence)", "type": "cell-based, mouse", "protocol": "The production of reactive oxygen species (ROS) was measured with DHR. In brief, DHR is oxidized to a fluorescent rhodamine-123 (Royall and Ischiropoulos, 1993), and the consequent rise in fluorescence may be used as an indicator of ROS production.\nROS were measured as previously described (Tymianski et al., 1998; Aarts et al., 2003). In brief, cultures were pre-loaded for 30 min with 5 μM DHR and subjected to the experimental insult. DHR fluorescence was measured in a multiwell plate fluorescence scanner (Cytofluor II, PerSeptive Biosytems, Framingham, Mass., USA; 485 nm excitation, 530 emission). DHR fluorescence was normalized to baseline using the formula at (Ft−Fo)/F0; Where Ft=DHR fluorescence at time t, Fo=DHR fluorescence at time zero. DHR fluorescence images were also acquired using a microscope (465-495 nm excitation and 515-555 nm emission) as described above for TMRM."}, "[6]": {"system": "mitochondrial membrane potential", "details": "10 μM; 10 min", "description": "Cultures were preincubated at 37° C. with 10 nM TMRM for 30 min. […] TMRM was maintained in the solution throughout the experiment. TMRM fluorescence was imaged on a Nikon Eclipse TE-2300 microscope using 20× objective (Nikon), a 510-560 nm bandpass excitation and 590 nm emission filter. Images were acquired using a Hamamatsu ORCA-ER digital camera and Simple PCI software (Nikon). Fluorescence from 10-30 cells was averaged and background subtracted for each image."}, "[7]": {"details": "20 h post-insult, 200 μM MnTBAP or 100 μM L-NAME"}}, "note": "No end group written: not given here."}
{"molecule": "z-val-ala-asp-fluoromethylketone [z-VAD-FMK]", "values": [{"measurement": "cytotoxicity in stretched cultures with 30 μM NMDA", "setting": "[1]", "result": "no significant reduction in cytotoxicity"}, {"measurement": "toxicity to unstretched cultures or stretch alone", "setting": "[1]", "result": "not toxic"}, {"measurement": "attenuation of staurosporine-induced death", "setting": "[2]", "result": "significantly reduced"}, {"measurement": "attenuation of staurosporine-induced death", "setting": "[2]; listed as zvadFMK", "result": 47, "unit": "%"}, {"measurement": "DNA fragmentation of neurons exposed to stretch+NMDA", "setting": "[3]; DNA gel electrophoresis", "result": "did not reduce DNA fragmentation"}]}
{"molecule": "CN[C@@H]1C[C@H]2O[C@@](C)([C@@H]1OC)n1c3ccccc3c3c4c(c5c6ccccc6n2c5c31)C(=O)NC4", "note": "[staurosporine]", "values": [{"measurement": "DNA laddering by gel electrophoresis", "setting": "[3]; 1 μM for 48 h", "result": "DNA ladders suggestive of intenucleosomal DNA fragmentation"}, {"measurement": "TUNEL staining", "setting": "[3]; 1 μM for 48 h", "result": "TUNEL staining was observed"}, {"measurement": "active caspase 3 staining", "setting": "caspase 3", "result": "stained for active caspase 3"}]}
{"molecule": "CSKDTMEKSESL", "values": [{"measurement": "peak NMDA current amplitudes", "setting": "NMDARs", "result": "2540±281", "unit": "pA"}]}
{"molecule": "KALGISYGRKK [Tat38-48]", "values": [{"measurement": "reduction of co-immunoprecipitation of PSD-95 with NR2B (optical density signal)", "setting": "NMDAR/PSD-95 interaction", "result": "none of the three control peptides reduced"}]}
{"molecule": "KLSSIESDV [NR2B9c]", "values": [{"measurement": "entry into cells / intracellular fluorescence", "setting": "[4]", "result": "did not enter cells"}]}
{"molecule": "N[C@@H](CSN=O)C(=O)O", "note": "[S-nitrosocysteine]", "values": [{"measurement": "NO donor toxicity", "setting": "[5]", "result": "highly toxic"}]}
{"molecule": "O=C(O)c1ccc(-c2c3nc(c(-c4ccc(C(=O)O)cc4)c4ccc([n-]4)c(-c4ccc(C(=O)O)cc4)c4nc(c(-c5ccc(C(=O)O)cc5)c5ccc2[n-]5)C=C4)C=C3)cc1.[Mn+3]", "note": "[MnTBAP, manganese(III) tetrakis(4-benzoic acid) porphyrin]", "values": [{"measurement": "cell death in stretched cells treated with 30 μM NMDA", "setting": "[1]; 30 min preincubation, 20 h", "result": "completely eliminated cell death"}, {"measurement": "DNA laddering after stretch followed by NMDA", "setting": "[3]; [7]", "result": "virtually abolished"}, {"measurement": "TUNEL staining after stretch followed by NMDA", "setting": "[3]; [7]", "result": "virtually abolished"}, {"measurement": "DHR fluorescence (ROS production)", "setting": "reactive oxygen species; 200 μM pretreatment", "result": "reduced DHR fluorescence in all culture conditions"}, {"measurement": "SNP toxicity", "setting": "[5]; SNP 300 μM, 200 μM MnTBAP pretreatment", "result": "reduced SNP toxicity to baseline"}]}
{"molecule": "N#CC(C#N)=NNc1ccc(OC(F)(F)F)cc1", "note": "[FCCP, reference compound]", "values": [{"measurement": "DHR fluorescence", "setting": "reactive oxygen species; mitochondrial uncoupler", "result": "abolished all DHR fluorescence"}, {"measurement": "mitochondrial depolarization (loss of TMRM fluorescence)", "setting": "[6]", "result": "profound mitochondrial depolarization"}]}
